Active and inactive are the calls of the source. The rule behind the calls is not given here.
Experiments:
[1] = biological target: Stimulator of interferon genes protein (Homo sapiens) (UniProt Q86WV6); assay: Agonist activity at STING in human THP-1 cells assessed as increase in LC3 protein level by Western blotting analysis; type: cell-based
[2] = biological target: Stimulator of interferon genes protein (Homo sapiens) (UniProt Q86WV6); assay: Agonist activity at STING in human THP-1 cells assessed as increase in TBK1 phosphorylation by Western blotting analysis; type: cell-based
[3] = biological target: Stimulator of interferon genes protein (Homo sapiens) (UniProt Q86WV6); assay: Agonist activity at STING in human THP-1 cells assessed as increase in IRF3 phosphorylation by Western blotting analysis; type: cell-based
[4] = biological target: T1, Stimulator of interferon genes protein (Mus musculus) (UniProt Q3TBT3); assay: Agonist activity at STING in MEF cells assessed as increase in STING oligomerization by Western blotting analysis; type: cell-based; conditions: filed as agonist
T1 sequence (whole entry): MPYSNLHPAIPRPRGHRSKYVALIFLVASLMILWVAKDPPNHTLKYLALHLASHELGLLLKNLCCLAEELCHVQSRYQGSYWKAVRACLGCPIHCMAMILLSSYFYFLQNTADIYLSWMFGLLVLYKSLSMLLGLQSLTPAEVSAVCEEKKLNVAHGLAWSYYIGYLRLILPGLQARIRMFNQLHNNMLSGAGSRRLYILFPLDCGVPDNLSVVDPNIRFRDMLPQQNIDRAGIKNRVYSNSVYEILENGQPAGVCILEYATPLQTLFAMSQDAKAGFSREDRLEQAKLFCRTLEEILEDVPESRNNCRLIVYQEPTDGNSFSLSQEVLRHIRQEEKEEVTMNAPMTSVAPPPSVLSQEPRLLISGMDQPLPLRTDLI

Human alphaherpesvirus 1 = assay: Antiviral activity against HSV-1-GFP infected in human STING-deficient WT HeLa cells assessed as reduction in viral infection by fluorescent microscopy analysis; type: functional, organism-based
[5] = biological target: T1, Stimulator of interferon genes protein (Mus musculus); assay: Agonist activity at STING in MEF cells assessed as nuclear transposition of phosphorylated IRF3 incubated for 1 hr by laser scanning confocal microscope analysis; type: cell-based; conditions: filed as agonist
[6] = biological target: T1, Stimulator of interferon genes protein (Mus musculus); assay: Agonist activity at STING in MEF cells assessed as STING translocation by measuring aggregation of green fluorescence incubated for 1 hr by laser scanning confocal microscope analysis; type: cell-based; conditions: filed as agonist
[7] = biological target: T1, Stimulator of interferon genes protein (Mus musculus); assay: Agonist activity at STING in MEF cells assessed as STING translocation to golgi apparatus by measuring increase in red fluorescence incubated for 1 hr by laser scanning confocal microscope analysis; type: cell-based; conditions: filed as agonist

Sequence of Stimulator of interferon genes protein (Homo sapiens) (Q86WV6 whole entry): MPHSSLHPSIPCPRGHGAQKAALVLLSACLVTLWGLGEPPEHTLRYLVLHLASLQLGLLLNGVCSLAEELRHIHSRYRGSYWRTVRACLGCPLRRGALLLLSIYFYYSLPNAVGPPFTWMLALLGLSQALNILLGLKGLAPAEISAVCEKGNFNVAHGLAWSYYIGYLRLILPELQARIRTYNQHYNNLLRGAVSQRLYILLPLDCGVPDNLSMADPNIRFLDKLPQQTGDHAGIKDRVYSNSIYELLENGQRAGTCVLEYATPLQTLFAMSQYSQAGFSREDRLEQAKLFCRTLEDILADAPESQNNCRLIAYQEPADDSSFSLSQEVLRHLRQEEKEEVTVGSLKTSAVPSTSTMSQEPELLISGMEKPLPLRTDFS

Activity [1]	Activity [2]	Activity [3]	SMILES	Activity [4]	Activity (Human alphaherpesvirus 1)	Activity [5]	Activity [6]	Activity [7]
inactive	inactive	inactive	C[C@H](NCCC(c1ccccc1)c1ccccc1)c1ccccc1					
inactive	inactive	inactive	CC(NC(=O)CC(c1ccccc1)c1ccccc1)c1ccccc1 (centres undefined)					
			Nc1nc2c(ncn2[C@@H]2O[C@@H]3COP(=O)(O)O[C@H]4[C@@H](O)[C@H](n5cnc6c(N)ncnc65)O[C@@H]4COP(=O)(O)O[C@@H]2[C@@H]3O)c(=O)[nH]1	Active	inactive	Active	Active	Active
inactive	inactive	inactive	C[C@@H](NCCC(c1ccccc1)c1ccccc1)c1ccccc1					

— ChEMBL document CHEMBL5518165, “M335, a novel small-molecule STING agonist activates the immune response and exerts antitumor effects” (Eur J Med Chem, 2024)
